The target in series [1] is T1, reuptake of noradrenaline (NA) in synaptosomes (Rattus norvegicus, UniProt Q63380).
T1 construct: in synaptosomes as described in WO 97/16451; from tissue; method in WO 97/16451
As to the kind of experiment: Inhibition of noradrenaline reuptake in synaptosomes. The format is biochemical.

The target of series [2] is T2, reuptake of serotonine (5-HT) in synaptosomes (Rattus norvegicus, UniProt P31652).
T2 construct: in synaptosomes as described in WO 97/16451; from tissue; method in WO 97/16451
As to the kind of experiment: Inhibition of serotonin reuptake in synaptosomes. The format is biochemical. On the procedure:
A number of compounds were tested for their ability to inhibit the reuptake of the monoamine neurotransmitters dopamine (DA) noradrenaline (NA) and serotonine (5-HT) in synaptosomes as described in WO 97/16451.
The test values are given as IC50 (the concentration (μM) of the test substance which inhibits the specific binding of ^3H-DA, ^3H-NA, or ^3H-5-HT by 50%).

The target of series [3] is T3, reuptake of dopamine (DA) in synaptosomes (Rattus norvegicus, UniProt P23977).
T3 construct: in synaptosomes as described in WO 97/16451; from tissue; method in WO 97/16451
As to the kind of experiment: Inhibition of dopamine reuptake in synaptosomes. The format is biochemical.

Setting [4] is: 3H-5-HT, synaptosomes, read-out: 5-HT-uptake IC50.

From US8153797B2, “Chromen-2-one derivatives and their use as monoamine neurotransmitter re-uptake inhibitors” (Neurosearch A/S, priority 2006, dated 2012) come the findings set out here.

Where a name gives a salt, the structure may show the parent alone. Read-outs that look alike come from different tables or passages of the source.

T1 sequence (Q63380 1-617): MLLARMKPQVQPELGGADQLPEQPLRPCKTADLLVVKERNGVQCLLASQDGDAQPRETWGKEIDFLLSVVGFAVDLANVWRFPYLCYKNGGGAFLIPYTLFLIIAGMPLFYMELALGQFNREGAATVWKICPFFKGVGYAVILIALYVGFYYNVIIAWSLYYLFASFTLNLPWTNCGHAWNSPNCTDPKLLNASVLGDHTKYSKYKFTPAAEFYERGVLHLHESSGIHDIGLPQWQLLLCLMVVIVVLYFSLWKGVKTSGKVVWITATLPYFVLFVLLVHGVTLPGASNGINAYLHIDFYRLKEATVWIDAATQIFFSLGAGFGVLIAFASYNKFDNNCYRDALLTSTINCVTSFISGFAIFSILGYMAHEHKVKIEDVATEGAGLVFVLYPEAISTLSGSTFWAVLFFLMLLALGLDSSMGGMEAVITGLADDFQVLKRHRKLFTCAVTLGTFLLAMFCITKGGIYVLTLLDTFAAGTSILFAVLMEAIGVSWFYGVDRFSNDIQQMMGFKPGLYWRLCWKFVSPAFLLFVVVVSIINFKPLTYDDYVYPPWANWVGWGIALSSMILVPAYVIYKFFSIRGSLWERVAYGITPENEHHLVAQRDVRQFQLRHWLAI
T2 sequence (P31652 whole entry): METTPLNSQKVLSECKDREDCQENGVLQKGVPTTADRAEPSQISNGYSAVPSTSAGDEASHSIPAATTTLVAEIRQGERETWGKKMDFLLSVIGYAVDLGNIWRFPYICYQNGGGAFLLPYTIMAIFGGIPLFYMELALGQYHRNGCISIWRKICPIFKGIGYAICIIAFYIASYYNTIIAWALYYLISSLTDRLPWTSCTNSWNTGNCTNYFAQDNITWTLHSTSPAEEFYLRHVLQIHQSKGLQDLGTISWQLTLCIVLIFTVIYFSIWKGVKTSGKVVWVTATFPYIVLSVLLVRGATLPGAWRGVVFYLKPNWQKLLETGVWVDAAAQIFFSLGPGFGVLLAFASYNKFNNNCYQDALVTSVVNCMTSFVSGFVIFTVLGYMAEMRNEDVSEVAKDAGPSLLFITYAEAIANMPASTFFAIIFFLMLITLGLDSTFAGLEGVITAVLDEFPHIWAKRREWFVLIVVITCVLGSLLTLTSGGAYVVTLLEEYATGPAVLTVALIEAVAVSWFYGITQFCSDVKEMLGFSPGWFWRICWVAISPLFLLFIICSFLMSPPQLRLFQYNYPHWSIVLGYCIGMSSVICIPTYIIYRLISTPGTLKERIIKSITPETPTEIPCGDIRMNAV
T3 sequence (P23977 whole entry): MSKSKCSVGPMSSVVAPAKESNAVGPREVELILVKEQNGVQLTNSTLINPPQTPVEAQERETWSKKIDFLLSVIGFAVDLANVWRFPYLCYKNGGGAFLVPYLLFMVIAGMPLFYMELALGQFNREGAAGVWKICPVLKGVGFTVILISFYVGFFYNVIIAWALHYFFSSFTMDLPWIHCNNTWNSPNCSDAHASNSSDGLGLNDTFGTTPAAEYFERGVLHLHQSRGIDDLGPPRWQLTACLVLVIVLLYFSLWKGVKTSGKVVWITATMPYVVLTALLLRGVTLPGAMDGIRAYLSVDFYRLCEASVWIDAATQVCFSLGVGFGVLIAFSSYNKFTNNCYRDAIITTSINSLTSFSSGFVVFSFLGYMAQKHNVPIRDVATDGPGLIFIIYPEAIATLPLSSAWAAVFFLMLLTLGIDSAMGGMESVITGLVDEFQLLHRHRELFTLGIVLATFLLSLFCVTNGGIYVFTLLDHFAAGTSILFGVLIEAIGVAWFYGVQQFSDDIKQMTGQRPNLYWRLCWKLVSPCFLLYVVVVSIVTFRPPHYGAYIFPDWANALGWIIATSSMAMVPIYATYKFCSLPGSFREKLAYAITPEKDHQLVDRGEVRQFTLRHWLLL

Turning to `O=c1oc2cc(O[C@@H]3C[C@H]4CC[C@@H](C3)N4)ccc2cc1Cl` [Second last compound of Method 2B, exo-7-(8-Aza-bicyclo[3.2.1]oct-3-yloxy)-3-chloro-chromen-2-one hydrochloric acid salt], the IC50 (in general, the point on the concentration scale where inhibition reaches its midpoint) in series [1] came to 14 nM; in series [2] (setting [4]) it was 0.59 nM; in series [3], 54 nM.
On to `CN1[C@@H]2C=C[C@H]1C[C@H](Oc1ccc3ccc(=O)oc3c1)C2` [First compound of Method 4B, exo-7-(8-Methyl-8-aza-bicyclo[3.2.1]oct-6-en-3-yloxy)-chromen-2-one hydrochloric acid salt], for which the IC50 in series [1] worked out at 720 nM; in series [2], 36 nM; in series [3], 700 nM.
Consider `CN1[C@@H]2C=C[C@H]1C[C@H](Oc1ccc3ccc(=O)oc3c1)C2` (as salt: hydrochloric acid salt) [First compound of Method 4B, exo-7-(8-Methyl-8-aza-bicyclo[3.2.1]oct-6-en-3-yloxy)-chromen-2-one hydrochloric acid salt], for which the melting point (commonly the temperature, or range, at which the solid turns liquid) is above 275 °C.
As for `CN1[C@@H]2CC[C@H]1C[C@H](Oc1ccc3cc(Br)c(=O)oc3c1)C2` [First compound of Method 2B, exo-3-Bromo-7-(8-methyl-8-aza-bicyclo[3.2.1]oct-3-yloxy)-chromen-2-one hydrochloric acid salt], the IC50 in series [1] (3H-NA, synaptosomes, read-out: NA-uptake IC50) is 17 nM; in series [2] (setting [4]), 1.2 nM; in series [3] (3H-DA, synaptosomes, read-out: DA-uptake IC50), 44 nM.
